Results on six molecules are retold here after publication PMC9026348, “Investigation of Direct and Retro Chromone-2-Carboxamides Based Analogs of Pseudomonas aeruginosa Quorum Sensing Signal as New Anti-Biofilm Agents” (Pharmaceuticals, 2022).

Data set [1] concerns P. aeruginosa PAO1 biofilms. Briefly: Anti-biofilm assay, CFU count of adherent cells. The class given is cell-based, Pseudomonas aeruginosa PAO1. The conditions noted are these: PAO1, 48 h, relative to untreated control, mean ± SD of 3 independent experiments; for Biofilm Inhibition (%): 50 µM; for inhibition at 50 µM: Pseudomonas aeruginosa. On the procedure:
The effect of all compounds was evaluated on PAO1 biofilms, grown in 24-well microplates. The antibiofilm assay used in this study is based on a low nutritive culture medium, a rather weak inoculum (10^2 CFU/mL), and a regular renewal of the culture medium (at 2, 4, 6, 20, and 24 h), in order to promote the growth of adhered cells as biofilm, instead of the growth and/or sedimentation of planktonic cells. Since the QS systems are involved in early steps of biofilm formation, compounds were added at t0. After incubation, viable cells were quantified by CFU plate counts.
The rather low concentration of 50 µM used was set up according to detected concentrations of QS molecules in CF patients’ lungs. […] For all compounds, MICs/MBCs were higher than 500 µM. To be considered active, a threshold of 50% inhibition, relative to the untreated control, was applied.
Pseudomonas aeruginosa PAO1 was obtained from the Institute Pasteur Collection (CIP 104116, Paris, France), frozen and kept at -80 °C in a 20% (v/v) glycerol stock solution. Before each experiment, two successive subcultures were prepared on trypticase soy agar and incubated for 24 h under aerobic conditions at 37 °C. Before each experiment, bacterial suspensions of 10^8 CFU/mL were prepared by adjusting OD at 640 nm to 0.150.
The bacterial enumerations were done on trypticase soy agar. The minimum biofilm broth used for biofilm formation (MBB) was prepared in sterile distilled water (SDW) and was composed of MgSO4·7H2O (0.02 g/L), FeSO4·7H2O (0.5 mg/L), Na2HPO4 (1.25 g/L), KH2PO4 (0.5 g/L), (NH4)2SO4 (0.1 g/L), and glucose (0.05 g/L) from Merck-Sigma (France).
The enumeration of adhered bacteria was carried-out according to Campanac et al. with some modifications. P. aeruginosa biofilms were grown in a 24-wells microtiter plate for 48 h. The culture medium was composed of BBM 2X (1.0 mL) and 1.0 mL of a 10^−4 M solution of tested compound dissolved in SDW (final concentration 50 µM). After inoculation with 100 µL of a 10^2 CFU/mL bacterial suspension of P. aeruginosa PAO1 (final inoculum 10 CFU/well), the microtiter plate was incubated à 37 °C. After 2 h, 4 h, 6 h, 20 h and 24 h of incubation, each well was emptied, rinsed twice with SDW, and the culture medium was renewed. After 48 h of culture, the biofilm was rinsed twice with 2.0 mL SDW. The bottom of each well was scraped with a sterile spatula and suspended in 1.0 mL of SDW. The content of each well was diluted by serial dilutions in test tubes. After inclusion of 0.9 mL of each dilution in trypticase soy agar, Petri dishes were incubated for 48 h at 37 °C. The number of colony forming units (CFUs) was counted and the inhibition percentage calculated using the following formula: Inhibition(%)=Adhered cellsControl(CFU/mL)−Adhered cellsSample(CFU/mL) /Adhered cellsControl×100

Another data set can be described thus: Cytotoxicity, MTT assay. The class given is cell-based. The conditions noted are these: African green monkey, Vero cells (ATCC CCL-81). On the procedure: Cells were incubated with different concentrations of compounds 3e, 3′a, 6a, 6b, 6d, 6f, 6k, 6s, 6n, and 6o, varying from 3.9 µM to 1.0 mM. The relative cell viabilities were determined after 24 h using the MTT assay and compared to the untreated control (100% viability). A 5% Tween solution was used as positive control. Figure 5 reports the viability % for all evaluated concentrations.
Evaluation of compounds’ cytotoxicity was performed using the MTT (3-(4,5-dimethylthiazol-2-yl)-2,5-diphenyltetrazolium bromide) colorimetric assay, based on the Mosmann et al. procedure with some modifications. […] Stock solutions of each compound prepared in Dulbeccos’s phosphate-buffered saline (D-PBS, Sigma, St. Quentin Fallavier, France) at a concentration of 2 mM were subjected to 2-fold serial dilutions with RPMI medium.
96-wells microtiter plates were first filled with 100 µL of a cell suspension prepared in RPMI medium (2 × 10^4 cells/100 µL). […] A third control was performed with a non-inoculated culture medium and compounds solution to validate the absence of interactions (OD measurements) between the assessed molecule and the reagents used in the procedure. […] After agitation, the OD was measured at 570 nm using a CLARIOstar Plus plate reader (BMG Labtech) and the viability percentage was calculated using the following formula. […]
(In general: Tetrazolium assays rely on reduction of a dye to a coloured formazan, in cell work by metabolically active cells.)

The inhibition is the relative decrease from the control value, in per cent. What is called IC50 is the midpoint of a concentration-inhibition curve. Higher therefore signals weaker potency. By melting point is commonly meant the temperature of the solid-liquid transition. `O=C(Nc1cc(=O)c2ccccc2o1)c1ccc([N+](=O)[O-])cc1[N+](=O)[O-]` [6n, 2,4-Dinitro-N-(4-oxo-4H-chromen-2-yl) benzamide] had a melting point of 252 °C. Further, in data set [1], the “Biofilm Inhibition (%)” value was determined as 90.0 ± 9.9% and the inhibition at 50 µM turned out to be 90.9 ± 9.9%. This molecule also came in with a half-inhibitory concentration (IC50) at 24 h in the data set “Cytotoxicity, MTT assay” of more than 1000 µM.
`O=C(Nc1cc(=O)c2ccccc2o1)c1ccc([N+](=O)[O-])cc1` [6m, 4-Nitro-N-(4-oxo-4H-chromen-2-yl) benzamide] yielded a melting point of 323 °C. Moreover, in data set [1], the “Biofilm Inhibition (%)” value was “inactive” and the inhibition at 50 µM was less than 10%.
Consider `COc1ccc(C(=O)Nc2cc(=O)c3ccccc3o2)cc1` [6p, 4-Methoxy-N-(4-oxo-4H-chromen-2-yl) benzamide], for which the melting point worked out at 227 °C. The molecule further displayed an inhibition at 50 µM in data set [1] of 39.3 ± 17.1%.
For `CCN(CC)Cc1cc(NC(=O)c2cc(=O)c3ccccc3o2)ccc1O` [3′c, N-(3-((Diethylamino)methyl)-4-hydroxyphenyl)-4-oxo-4H-chromene-2-carboxamide], in that order: 186 °C and 39.7 ± 4.5%.
Taken in the same sequence, the figures for `O=C(Nc1cc(=O)c2ccccc2o1)c1ccc(Cl)cc1` [6f, 4-Chloro-N-(4-oxo-4H-chromen-2-yl) benzamide] were 296 °C and 66.6 ± 2.1%.
For `CCc1ccc(NC(=O)c2cc(=O)c3ccccc3o2)cc1` [3c, N-(4-Ethylphenyl)-4-oxo-4H-chromene-2-carboxamide], the melting point came out at 179 °C. The inhibition at 50 µM in data set [1] was determined as 43.3 ± 7.2%.
